Measured values published in publication PMC8968952, “Modulation of ERCC1-XPF Heterodimerization Inhibition via Structural Modification of Small Molecule Inhibitor Side-Chains” (Frontiers in Oncology, 2022).

Tests used:
[1] = set-up: method as in PMID 31369707; details: cited from earlier work
HCT-116 cells [2] = system: HCT-116 cells; set-up: method as in PMID 31369707; details: 1 μM compound, 50 μM cyclophosphamide; cited from earlier work
HCT-116 cells [3] = system: HCT-116 cells; set-up: method as in PMID 31369707; details: 2 μM, after 24 hours; cited from earlier work
[4] = target: T1, ERCC1-XPF heterodimer in A549 cells (Homo sapiens, UniProt Q92889); set-up: method as in PMID 33399940; details: A549 cells treated with 20 μM cisplatin and 1 μM inhibitor; cited from earlier work
T1 construct: endogenous in cells; host or cells: A549
T1 sequence (Q92889 1-916): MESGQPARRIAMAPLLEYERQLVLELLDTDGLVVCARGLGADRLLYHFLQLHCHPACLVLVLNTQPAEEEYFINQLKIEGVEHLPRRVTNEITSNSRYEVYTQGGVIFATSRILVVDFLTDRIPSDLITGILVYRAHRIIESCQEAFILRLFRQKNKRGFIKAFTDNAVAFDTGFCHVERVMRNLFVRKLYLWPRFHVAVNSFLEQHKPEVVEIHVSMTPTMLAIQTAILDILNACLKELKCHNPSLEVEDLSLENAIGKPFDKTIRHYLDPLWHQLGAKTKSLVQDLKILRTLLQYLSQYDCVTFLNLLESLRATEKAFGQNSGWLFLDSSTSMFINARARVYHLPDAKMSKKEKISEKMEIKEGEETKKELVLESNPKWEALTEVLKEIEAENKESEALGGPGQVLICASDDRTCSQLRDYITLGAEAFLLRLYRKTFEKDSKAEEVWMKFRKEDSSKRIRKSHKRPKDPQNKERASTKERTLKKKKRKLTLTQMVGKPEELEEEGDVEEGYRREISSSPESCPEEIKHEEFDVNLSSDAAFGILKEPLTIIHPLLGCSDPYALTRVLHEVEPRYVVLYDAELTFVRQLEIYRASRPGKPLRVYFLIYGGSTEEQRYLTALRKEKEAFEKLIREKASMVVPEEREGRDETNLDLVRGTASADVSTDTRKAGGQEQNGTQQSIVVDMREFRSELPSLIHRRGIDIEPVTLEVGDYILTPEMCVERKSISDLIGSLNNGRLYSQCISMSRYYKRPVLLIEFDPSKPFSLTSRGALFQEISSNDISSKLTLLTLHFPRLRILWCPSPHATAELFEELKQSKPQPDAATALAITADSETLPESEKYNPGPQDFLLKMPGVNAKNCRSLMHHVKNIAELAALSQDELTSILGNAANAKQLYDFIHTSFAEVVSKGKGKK

[5] = set-up: method as in PMID 31369707; details: cited from earlier work; remark: listed apart in the source
CYP2D6 = CYP2D6 (Homo sapiens, UniProt P10635); set-up: method as in PMID 31369707; details: read-out: Inhibition of cytochrome P450 (IC50) CYP2D6; cited from earlier work
CYP2D6, sequence (P10635 whole entry): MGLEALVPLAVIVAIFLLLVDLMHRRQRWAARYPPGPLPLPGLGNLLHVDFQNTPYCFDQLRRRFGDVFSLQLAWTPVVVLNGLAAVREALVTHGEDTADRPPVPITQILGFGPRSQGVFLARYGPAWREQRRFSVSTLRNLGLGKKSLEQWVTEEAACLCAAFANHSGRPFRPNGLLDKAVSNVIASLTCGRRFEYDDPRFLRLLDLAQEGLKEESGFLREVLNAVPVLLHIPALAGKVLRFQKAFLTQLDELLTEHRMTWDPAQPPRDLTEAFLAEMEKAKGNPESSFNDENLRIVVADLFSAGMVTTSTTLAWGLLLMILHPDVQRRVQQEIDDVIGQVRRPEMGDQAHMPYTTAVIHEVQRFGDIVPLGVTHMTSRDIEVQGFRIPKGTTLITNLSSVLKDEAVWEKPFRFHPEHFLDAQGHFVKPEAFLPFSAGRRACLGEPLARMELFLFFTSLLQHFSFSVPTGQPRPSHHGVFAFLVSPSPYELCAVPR

CYP2C9 = CYP2C9 (Homo sapiens, UniProt P11712); set-up: method as in PMID 31369707; details: read-out: Inhibition of cytochrome P450 (IC50) CYP2C9; cited from earlier work
CYP2C9, sequence (P11712 whole entry): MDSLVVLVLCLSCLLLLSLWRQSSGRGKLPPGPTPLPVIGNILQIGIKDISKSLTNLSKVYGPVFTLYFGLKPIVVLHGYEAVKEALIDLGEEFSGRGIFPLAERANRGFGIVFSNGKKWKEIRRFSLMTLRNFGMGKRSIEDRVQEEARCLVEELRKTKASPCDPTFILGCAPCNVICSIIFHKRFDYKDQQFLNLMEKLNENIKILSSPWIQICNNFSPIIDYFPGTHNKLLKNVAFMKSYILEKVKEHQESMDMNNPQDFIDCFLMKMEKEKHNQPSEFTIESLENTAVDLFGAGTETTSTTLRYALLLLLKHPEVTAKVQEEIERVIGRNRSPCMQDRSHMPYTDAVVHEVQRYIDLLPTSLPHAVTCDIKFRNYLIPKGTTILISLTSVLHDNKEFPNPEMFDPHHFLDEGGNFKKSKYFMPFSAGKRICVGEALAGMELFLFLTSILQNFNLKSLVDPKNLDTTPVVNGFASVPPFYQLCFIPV

CYP3A4-M = CYP3A4-M (Homo sapiens, UniProt P08684); set-up: method as in PMID 31369707; details: read-out: Inhibition of cytochrome P450 (IC50) CYP3A4-M; cited from earlier work
CYP3A4-M, sequence (P08684 whole entry): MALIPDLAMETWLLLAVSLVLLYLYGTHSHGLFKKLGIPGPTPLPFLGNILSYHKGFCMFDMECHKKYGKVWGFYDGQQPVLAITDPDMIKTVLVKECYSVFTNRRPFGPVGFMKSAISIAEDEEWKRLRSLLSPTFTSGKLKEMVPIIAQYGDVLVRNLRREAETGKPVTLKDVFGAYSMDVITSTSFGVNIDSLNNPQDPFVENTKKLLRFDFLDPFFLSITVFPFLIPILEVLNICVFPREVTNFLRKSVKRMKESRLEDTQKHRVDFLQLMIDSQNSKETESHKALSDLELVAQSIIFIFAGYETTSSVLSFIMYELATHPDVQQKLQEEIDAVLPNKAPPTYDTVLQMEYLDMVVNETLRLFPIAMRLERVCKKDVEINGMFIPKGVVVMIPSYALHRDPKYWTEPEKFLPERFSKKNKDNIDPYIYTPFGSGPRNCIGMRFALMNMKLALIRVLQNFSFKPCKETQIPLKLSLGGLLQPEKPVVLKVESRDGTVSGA

[6] = system: ERCC1 or XPF levels in A549 cells; assay: Western blot of ERCC1 and XPF protein levels (PLA control); format: cell-based, human; details: 2 µM, 24 h
Experimental: page 1: Supplementary Material […] Supplementary Figure 1. ERCC1-XPF mediated cleavage of the stem-loop DNA substrate, in which the FAM signal is quenched, releases the fluorescently tagged octanucleotide. Triplicate measurements of the control (DMSO) and the effect of 10 μM of compounds 4 and 6 on the incision activity is shown. 2 PLA Control Experiments Supplementary Figure 2. A549 cells were seeded in 6-well culture dishes (Thermo Fishes Scientific) at a density of 0.3 X 10^6 cells/well in a final volume of 3 ml. […] The chambers were incubated for 24 h and then washed with PBS and the cells were solubilized with RIPA buffer in the presence of protease inhibitor cocktail (Cell Signaling Technology) plus 2 mM EDTA. […] EpiGentek), XPF (LS- C173159, 1:1000; LifeSpan BioSciences, Seattle, WA) and B-Actin (sc-47778, 1:1000; Santa Cruz) primary antibodies followed by secondary anti-mouse or anti-rabbit secondary HRP-conjugated secondary antibodies. ECL chemiluminescent substrate (Promega) was used to detect the proteins. 3 Cytotoxicity Analysis Supplementary Figure 3. Cytotoxicity assay using colony forming assay 4 HCT-116 Derived XPF Knockout Cells For CRISPR deletion of XPF from HCT-116 cells, the pSpCas9(BB)-2A-GFP (pX458) vector (Addgene plasmid # 48138) was used. The short guide sequence to target XPF exon one was: 5'- [NT] 3' and target XPF exon eight was: 5'- [NT]3'. […]

HCT-116 cells [7] = system: HCT-116 cells; set-up: method as in PMID 31369707; details: 1.0 μM compound, 4 J/m^2 UVC; cited from earlier work
CYP2C19 = CYP2C19 (Homo sapiens, UniProt P33261); set-up: method as in PMID 31369707; details: read-out: Inhibition of cytochrome P450 (IC50) CYP2C19; cited from earlier work
CYP2C19, sequence (P33261 whole entry): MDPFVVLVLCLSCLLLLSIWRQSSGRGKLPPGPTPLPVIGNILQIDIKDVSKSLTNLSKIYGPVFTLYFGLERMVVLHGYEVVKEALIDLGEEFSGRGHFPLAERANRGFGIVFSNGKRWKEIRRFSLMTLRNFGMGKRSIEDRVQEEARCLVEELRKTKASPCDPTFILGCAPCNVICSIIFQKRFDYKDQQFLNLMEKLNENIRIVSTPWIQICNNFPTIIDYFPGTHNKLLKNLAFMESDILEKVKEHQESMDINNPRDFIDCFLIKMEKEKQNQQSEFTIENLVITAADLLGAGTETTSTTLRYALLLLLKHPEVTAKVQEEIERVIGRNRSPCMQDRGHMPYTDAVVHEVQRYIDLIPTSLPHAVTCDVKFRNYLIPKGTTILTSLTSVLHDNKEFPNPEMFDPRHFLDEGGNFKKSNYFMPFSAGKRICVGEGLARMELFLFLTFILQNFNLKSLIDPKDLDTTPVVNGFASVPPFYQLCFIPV

In the case of COc1ccc2nc3cc(Cl)ccc3c(Nc3ccc(O)c(CN4CCN(CCN(C)C)CC4)c3)c2c1 [Compound 4], the “Metabolic stability in cryopreserved human hepatocytes (clearance)” value [1] is given as 48.8 mL/min/kg, the “Metabolic stability in cryopreserved human hepatocytes T1/2” value [1] is given as 1.32 h and the “cell survival with cyclophosphamide” value (HCT-116 cells [2]) is given as “about 75%”. For the same compound, the CPD removal (HCT-116 cells [3]) was 60%, the “PLA: inhibition of the interaction between ERCC1 and XPF (in words)” value [4] was “clear inhibition of the interaction between ERCC1 and XPF” and the “Metabolic stability in human liver microsomes (clearance)” value [5] was 44.0 (mL/min/kg). The IC50 (CYP2D6) was 16 µM, the IC50 (CYP2C9) was greater than 50 µM and the IC50 (CYP3A4-M) was 37.1 µM. The “levels of ERCC1 or XPF vs untreated cells” value [6] was “no significant differences”, the “cell survival after UVC” value (HCT-116 cells [7]) was ~ 50% and the IC50 (CYP2C19) was greater than 50 µM.
